Patent publication US20240207276A1, “COMBINATION COMPRISING A NEUROTENSIN RECEPTOR BINDING COMPOUND AND FOLFIRINOX” (Fusion Pharmaceuticals Inc., priority 2021, published 2024)

Tested on: AsPC1 tumors
Experiment: Efficacy study in mice bearing subcutaneous AsPC1 tumors (tumor volume)
Type: in vivo, SWISS Nude mice
Conditions: single treatments; FOLFIRINOX (Group 2) or ^177Lu-IPN01087 20 MBq/mouse IV weekly x3 (Group 3); FIG. 2
Method: Example 1: Efficacy Study on Animals Induced with AsPC1 Cells
The AsPC1 cell line was isolated from a metastatic site (ascites) from a patient (Chen WH. et al., In Vitro. 1982 January; 18(1):24-34).
Tumor cells were grown as monolayer at 37° C. in a humidified atmosphere (5% C02, 95% air). The culture medium is RPMI 1640 containing glutamax supplemented with 10% heat inactivated fetal bovine serum, sodium pyruvate and hepes. For experimental use, tumor cells were detached from the culture flask using accutase and neutralized by addition of complete culture medium. The cells were counted and their viability was assessed by 0.25% trypan blue exclusion assay. Two frozen pellets of AsPC-1 tumor cells were prepared: one frozen cell pellet prepared during the in-vitro cell culture, and one frozen cell pellet prepared using the cell suspension used for tumor induction in mice.
One hundred fifty (150) healthy female SWISS Nude mice (Crl:NU(Ico)-Foxn1 nu), 7 weeks old at reception, were obtained from Charles River.
Tumors were induced by subcutaneous injection of ten million (107) AsPC-1 cells in 200 μL of RPMI 1640 medium containing matrigel (50:50, v:v, ref: 356237, BD Biosciences, France) into the right flank (in the axis of the heart) of 150 female animals. […]

**Q.** For “^177Lu-zalsenertant tetraxetan [^177Lu-IPN01087]”, which “AsPC-1 tumor growth, antitumor effect compared to the vehicles” value is on record?
**A.** produced an antitumor effect
